In patent publication US8183262B2, “Pyridine derivatives as mGluR2 antagonists” (Hoffmann-La Roche Inc., priority 2007, dated 2012) one finds melting point data, which are given here for 12 compounds.

A word on the melting point: it is the temperature of the solid-liquid transition. Compound `COC1CCN(S(=O)(=O)c2cccc(-c3cccc(-c4cc(-c5ccc(C(F)(F)F)cc5)cc(C)n4)n3)c2)CC1` [Example 429, 6′-[3-(4-Methoxy-piperidine-1-sulfonyl)-phenyl]-6-methyl-4-(4-trifluoromethyl-phenyl)-[2,2′]bipyridinyl] registered a melting point of 107 °C.
Compound `NS(=O)(=O)c1cccc(-c2noc(-c3nc(-c4ccc(C(F)(F)F)cc4)cc(C(F)(F)F)n3)n2)c1` [Example 16, 3-{5-[4-Trifluoromethyl-6-(4-trifluoromethyl-phenyl)-pyrimidin-2-yl]-[1,2,4]oxadiazol-3-yl}-benzenesulfonamide] showed a melting point of 204 °C.
In turn, `Cc1cc(-c2ccc(Cl)c(Cl)c2)nc(-c2ccnc(-c3ccc(S(N)(=O)=O)s3)c2)n1` [Example 196, 5-{4-[4-(3,4-Dichloro-phenyl)-6-methyl-pyrimidin-2-yl]-pyridin-2-yl}-thiophene-2-sulfonic acid amide] yielded a melting point of 267 °C.
In the case of `Cc1cc(-c2ccc(C(F)(F)F)c(C)c2)cc(-c2cccc(-c3cccc(S(=O)(=O)NC(C)(C)C)c3)n2)n1` [Example 438, N-tert-Butyl-3-[6′-methyl-4′-(3-methyl-4-trifluoromethyl-phenyl)-[2,2′]bipyridinyl-6-yl]-benzenesulfonamide] it was 150 °C (dec.).
Consider `O=S(=O)(c1cccc(-c2cccc(-c3nc(-c4ccc(C(F)(F)F)cc4)cc(C(F)(F)F)n3)c2)c1)N(CCO)CCO` [Example 392, 3′-[4-Trifluoromethyl-6-(4-trifluoromethyl-phenyl)-pyrimidin-2-yl]-biphenyl-3-sulfonic acid bis-(2-hydroxy-ethyl)-amide], for which the melting point was found to be 111.5 °C.
The same measure for `CCc1cc(-c2ccc(C(F)(F)F)cc2)cc(-c2cccc(-c3cccc(S(=O)(=O)NC(C)(C)C)c3)c2)n1` [Example 265, 3′-[6-Ethyl-4-(4-trifluoromethyl-phenyl)-pyridin-2-yl]-biphenyl-3-sulfonic acid tert-butylamide]: 169 °C; for `Nc1cc(-c2noc(-c3nc(-c4ccc(C(F)(F)F)cc4)cc(C(F)(F)F)n3)n2)ccn1` [Example 12, 4-{5-[4-Trifluoromethyl-6-(4-trifluoromethyl-phenyl)-pyrimidin-2-yl]-[1,2,4]oxadiazol-3-yl}-pyridin-2-ylamine]: 223.5 °C; for `NS(=O)(=O)c1ccc(-c2cccc(-c3nc(-c4ccc(F)cc4)cc(C(F)(F)F)n3)c2)s1` [Example 395, 5-{3-[4-(4-Fluoro-phenyl)-6-trifluoromethyl-pyrimidin-2-yl]-phenyl}-thiophene-2-sulfonic acid amide]: 228.5 °C.
In the case of `Cc1cc(-c2cc(C(F)(F)F)nc(-c3nc(-c4ccc(N)nc4)no3)n2)ccc1C(F)(F)F` [Example 130, 5-{5-[4-(3-Methyl-4-trifluoromethyl-phenyl)-6-trifluoromethyl-pyrimidin-2-yl]-[1,2,4]oxadiazol-3-yl}-pyridin-2-ylamine] it was 223 °C.
Consider `Cc1cc(-c2ccc(C(F)(F)F)cc2)nc(-n2cnc(-c3ccc(N)nc3)c2)n1` [Example 46, 5-{1-[4-Methyl-6-(4-trifluoromethyl-phenyl)-pyrimidin-2-yl]-1H-imidazol-4-yl}-pyridin-2-ylamine], for which the melting point is 230 to 232 °C.
In the case of `NS(=O)(=O)c1ccc(-c2cn(-c3nc(-c4ccc(F)cc4)cc(C(F)(F)F)n3)cn2)s1` [Example 386, 5-{1-[4-(4-Fluoro-phenyl)-6-trifluoromethyl-pyrimidin-2-yl]-1H-imidazol-4-yl}-thiophene-2-sulfonic acid amide] it was 244.5 °C; in that of `O=S(=O)(NCCO)c1cccc(-c2cc(-c3nc(-c4ccc(C(F)(F)F)cc4)cc(C(F)(F)F)n3)ccn2)c1` [Example 381, N-(2-Hydroxy-ethyl)-3-{4-[4-trifluoromethyl-6-(4-trifluoromethyl-phenyl)-pyrimidin-2-yl]-pyridin-2-yl}-benzenesulfonamide], 192.5 °C.
